Data as given in PMC7077018, “Gas chromatography-mass spectrometry analysis, phytochemical screening and antiprotozoal effects of the methanolic Viola tricolor and acetonic Laurus nobilis extracts” (BMC Complementary Medicine and Therapies, 2020).
≈ marks a conversion by molar mass, not a printed value. Where two headings read alike, the source gives them in different places.

How the values were obtained:
[1] = system: human foreskin fibroblast (HFF) cells; assay: Cytotoxicity assay on normal cells (CCK-8); type: cell-based; conditions: HFF cell viability, 24 h
Protocol: (§1) Cultures of Human foreskin fibroblast (HFF; HFF-1 ATCC® SCRC-1041™), Madin–Darby bovine kidney (MDBK; ECACC) and mouse embryonic fibroblast (NIH/3 T3; ATCC® CRL-1658™) cells were retrieved from − 80 °C stock and cultured continuously at 37 °C under atmosphere 5% CO2 in our laboratory. The NIH/3 T3 and HFFs cells were preserved in Dulbecco Modified Eagle’s Medium (DMEM; Gibco, Grand Island, NY, USA), while MDBK cell line grown in Minimum Essential Medium Eagle (MEM; Gibco). All mediums were treated with 2 mM glutamine, 0.5% penicillin/streptomycin (Gibco) and 10% inactivated fetal bovine serum. Every 72 to 96 h, the medium was replaced, and once 80% confluence was reached, the cell collection was performed by sub-culture protocol. To confirm the absence of mycoplasma contamination, 4, 6-diamidino-2-phenylindole dihydrochloride (Sigma-Aldrich, USA) stain was used.
(§2) The cell viability test was conducted in a 96-well plate as described elsewhere. Briefly, an aliquot of (100 μL) cells was implanted at 5 × 10^4 cells/mL in DMEM or MEM with fetal bovine serum and incubated overnight under atmosphere 5% CO2 at 37 °C for attachment. Using two-fold dilutions, aliquots (10 μL) of herbal extracts and reference drugs were added in triplicate per well and further incubated for 24 h. The positive control wells containing cells mixed with the medium in 0.4% DMSO, whereas the negative control wells containing culture medium only. After a 24-h incubation, Cell Counting Kits-8 (CCK-8) (10 μL) was added per well and then plate incubation was conducted for an additional 3 h and a microplate reader was used to assess the absorbance at 450 nm.

[2] = system: mouse embryonic fibroblast (NIH/3 T3) cells; assay: Cytotoxicity assay on normal cells (CCK-8); type: cell-based; conditions: 24 h
Protocol: as §1, §2

[3] = system: Madin–Darby bovine kidney (MDBK) cells; assay: Cytotoxicity assay on normal cells (CCK-8); type: cell-based; conditions: MDBK cell viability, 24 h
Protocol: as §1, §2

B. bigemina = assay: Babesia fluorescent (SYBR Green I) in vitro growth inhibition assay; type: cell-based; conditions: for IC50: B. bigemina, in vitro, 4 days
Excerpt: (§3) For the in vitro experiments, a German strain B. divergens, Argentine strain B. bigemina, Texas strain B. bovis, were cultivated in cattle RBCs, while USDA strains of equine piroplasm parasites (T. equi and B. caballi) were maintained in horse RBCs. […] For conducting the in vivo study, female BALB/c mice, aged six-week, obtained from CLEA Japan were infected with B. microti Munich strain [1]. […] GIT medium replenished with 40% horse serum was used as a growth medium for B. caballi parasite culture. To ensure free-bacterial contamination, all medium was supplemented with amphotericin B (0.15 μg/mL) (Sigma-Aldrich, USA), streptomycin (60 U/mL) and penicillin G (60 U/mL). The Babesia fluorescent assay was carried out on the in vitro culture as previously reported elsewhere. […] On day four of culture, an aliquot (100 μL) of lysis buffer was added to 0.2 μL/mL SG1 per well; subsequently, it was covered with aluminum foil to prevent exposure to light. After a 6-h incubation at 37 °C, fluorescence readings were acquired on a spectrofluorimeter (Fluoroskan Ascent, Thermo Fisher Scientific, USA) with a 485 nm excitation wavelength and a 518 nm emission wavelength. The IC50 values of the two extracts, DMA and ATV were established from the in vitro growth inhibition by nonlinear regression curve fit on a GraphPad Prism (GraphPad Software Inc., USA). While for in vivo, the significant variations (p < 0.05) among group mean values on parasitemia and one-way ANOVA Tukey's test in GraphPad Prism version 5.0 was used to analyze hematology profiles in mice infected with B. microti.

T. equi = assay: as above; type: cell-based; conditions: for IC50: T. equi, in vitro, 4 days
Excerpt: as §3

B. bovis = assay: as above; type: cell-based; conditions: for IC50: B. bovis, in vitro, 4 days
Excerpt: as §3

B. divergens = assay: as above; type: cell-based; conditions: for IC50: B. divergens, in vitro, 4 days
Excerpt: as §3

B. caballi = assay: as above; type: cell-based; conditions: for IC50: B. caballi, in vitro, 4 days
Excerpt: as §3

B. microti = assay: Chemotherapeutic effects against B. microti in infected BALB/c mice; type: in vivo
Protocol: For the in vitro experiments, a German strain B. divergens, Argentine strain B. bigemina, Texas strain B. bovis, were cultivated in cattle RBCs, while USDA strains of equine piroplasm parasites (T. equi and B. caballi) were maintained in horse RBCs. The parasite incubation occurred at 37 °C in a humidifying chamber under 90% N2, 5% O2, and 5% CO2 atmosphere using a microaerophilic stationary-phase culture. For conducting the in vivo study, female BALB/c mice, aged six-week, obtained from CLEA Japan were infected with B. microti Munich strain [1].
Twenty-five mice were placed in an environment free from pathogens with 22 °C temperature and adjusted humidity and under 12 h light and 12 h darkness and randomly distributed into five groups. The mice in groups 2 through 5 were obtained 500 μL of 1 × 10^7B. microti iRBC by intraperitoneal (i.p.) injection. Group 1 served as a negative control and was neither infected nor treated. At 1% parasitemia, drug treatment of the mice by i.p. started, continuing for 5 days. Group 2 act as a positive control group and received 95% DDW and 5% DMSO. […] The drug administration lasted for 5 days starting from the fourth day to the eighth day post-infection (p.i.), and parasitemia was checked by preparing Giemsa-stained smears every 2 days in about 2000 RBCs by microscopy until day 32 post-infection (p.i.). Furthermore, the hematological parameters, including hemoglobin (HGB), RBCs, and HCT, were determined by an automatic hematology analyzer (Celltac α MEK-6450, Nihon Kohden, Japan) every 4 days. After finishing the in vivo experiment, an anesthetic system using an inhaler containing isoflurane was used to euthanize all mice by placing them in the induction chamber, adjusting the oxygen flowmeter to 0.8 to 1.5 L/min and vaporizer to 3 to 5%. […]

Leishmania = system: Leishmania; set-up: method as in PMID 28968213; conditions: cited from earlier work

## O=C1C(O)=C([C@H]2CC[C@H](c3ccc(Cl)cc3)CC2)C(=O)c2ccccc21 [ATV, atovaquone]
[1]; Homo sapiens
  EC50: > 100 µg/mL
[2]; Mus musculus, NIH3T3, NIH/3 T3 cell viability
  EC50: > 100 µg/mL
[3]; Bos taurus
  EC50: > 100 µg/mL
B. bigemina; 96 h, read-out: IC50
  IC50: 0.26 ± 0.03 µg/mL (≈ 0.709 µM)
B. bigemina; EC50 HFF / IC50 B. bigemina
  Selective indices HFF: ˃ 384.6
B. bigemina; EC50 MDBK / IC50 B. bigemina
  Selective indices MDBK: ˃ 384.6
B. bigemina; EC50 NIH/3 T3 / IC50 B. bigemina
  Selective indices NIH/3 T3: ˃ 384.6
T. equi; 96 h, read-out: IC50
  IC50: 0.035 ± 0.01 µg/mL (≈ 0.0954 µM)
T. equi; EC50 HFF / IC50 T. equi
  Selective indices HFF: ˃ 2857.1
T. equi; EC50 MDBK / IC50 T. equi
  Selective indices MDBK: ˃ 2857.1
T. equi; EC50 NIH/3 T3 / IC50 T. equi
  Selective indices NIH/3 T3: ˃ 2857.1
B. bovis; Bos taurus, 96 h, read-out: IC50
  IC50: 0.015 ± 0.001 µg/mL (≈ 0.0409 µM)
B. bovis; EC50 HFF / IC50 B. bovis
  Selective indices HFF: ˃ 6666.7
B. bovis; EC50 MDBK / IC50 B. bovis
  Selective indices MDBK: ˃ 6666.7
B. bovis; EC50 NIH/3 T3 / IC50 B. bovis
  Selective indices NIH/3 T3: ˃ 6666.7
B. divergens; 96 h, read-out: IC50
  IC50: 0.014 ± 0.002 µg/mL (≈ 0.0382 µM)
B. divergens; EC50 HFF / IC50 B. divergens
  Selective indices HFF: ˃ 7142.9
B. divergens; EC50 MDBK / IC50 B. divergens
  Selective indices MDBK: ˃ 7142.9
B. divergens; EC50 NIH/3 T3 / IC50 B. divergens
  Selective indices NIH/3 T3: ˃ 7142.9
B. caballi; Babesia caballi, 96 h, read-out: IC50
  IC50: 0.038 ± 0.01 µg/mL (≈ 0.104 µM)
B. caballi; EC50 HFF / IC50 B. caballi
  Selective indices HFF: ˃ 2631.6
B. caballi; EC50 MDBK / IC50 B. caballi
  Selective indices MDBK: ˃ 2631.6
B. caballi; EC50 NIH/3 T3 / IC50 B. caballi
  Selective indices NIH/3 T3: ˃ 2631.6

## CC(=O)NCC(=O)O.CC(=O)NCC(=O)O.N=C(N)c1ccc(N=NNc2ccc(C(=N)N)cc2)cc1 [DMA, diminazene aceturate]
[1]
  EC50 HFF: ˃ 100 μg/mL
[2]; NIH/3 T3 cell viability
  EC50 NIH/3 T3: ˃ 100 μg/mL
[3]
  EC50 MDBK: ˃ 100 μg/mL
B. bigemina
  IC50: 0.11 ± 0.01 µg/mL
T. equi
  IC50: 0.37 ± 0.01 µg/mL
B. bovis
  IC50: 0.25 ± 0.02 µg/mL
B. divergens
  IC50: 0.35 ± 0.03 µg/mL
B. caballi
  IC50: 0.003 ± 0.001 µg/mL
B. microti; 25 mg kg−1, eighth day p.i., mice
  Restriction of the parasitemia level: 93.2%
B. microti; 25 mg kg−1 intraperitoneally for 5 days, 8 days p.i., BALB/c mice
  Level of parasitemia: 3.9%
B. microti; B. microti-infected mice
  Anemia development in mice: prohibited anemia development

## O=C/C=C/c1ccccc1 [cinnamaldehyde]
Leishmania
  IC50 antileishmanial effect: 0.681 µg/mL (≈ 5.15 µM)

## C=CCc1ccc(O)c(OC)c1 [eugenol]
Leishmania
  IC50 antileishmanial effect: 1.43 µg/mL (≈ 8.68 µM)
